The compounds below were run against T1, Lysophosphatidic acid receptor 3 (Homo sapiens, UniProt Q9UBY5) (assay: In vitro antagonism of LPA-evoked [35S]GTP-gamma-S binding to lysophosphatidic acid receptor 3 in HEK293T cell lines).
T1 sequence (Q9UBY5 whole entry): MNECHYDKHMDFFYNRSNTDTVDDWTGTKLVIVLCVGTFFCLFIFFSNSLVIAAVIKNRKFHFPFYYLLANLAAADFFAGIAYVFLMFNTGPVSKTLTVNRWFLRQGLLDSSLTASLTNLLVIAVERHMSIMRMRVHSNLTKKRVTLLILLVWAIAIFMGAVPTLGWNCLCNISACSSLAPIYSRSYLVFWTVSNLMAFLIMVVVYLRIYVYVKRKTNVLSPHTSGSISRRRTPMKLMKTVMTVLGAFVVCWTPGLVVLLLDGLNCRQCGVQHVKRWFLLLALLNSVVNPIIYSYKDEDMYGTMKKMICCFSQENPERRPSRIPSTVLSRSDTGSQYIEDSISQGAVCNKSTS
Format: functional, cell-based, HEK-293T

Row | SMILES | IC50
1 | CCCCCCCC/C=C\CCCCCCCC(=O)NC(COP(=O)(O)O)Cc1ccc(OCc2ccccc2)cc1 (stereo not drawn) | 6.45 µM
2 | CCCCCCCC/C=C\CCCCCCCC(=O)N[C@@H](COP(=O)(O)O)Cc1ccc(OC(=O)c2cc(OC)c(OC)c(OC)c2)cc1 | 0.427 µM
3 | CCCCCCCC/C=C\CCCCCCCC(=O)N[C@@H](COP(=O)(O)O)Cc1ccc(OC2Cc3ccccc3C2)cc1 | 2.31 µM
4 | CCCCCCCC/C=C\CCCCCCCC(=O)N[C@H](COP(=O)(O)O)Cc1ccc(OC(=O)c2ccc(CCCCC)cc2)cc1 | > 10 µM
5 | CCCCCCCC/C=C\CCCCCCCC(=O)N[C@@H](COP(=O)(O)O)Cc1ccc(Oc2cc3ccccc3[nH]2)cc1 | 2.63 µM
6 | CCCCCCCC/C=C\CCCCCCCC(=O)N[C@H](COP(=O)(O)O)Cc1ccc(OCc2ccccn2)cc1 | 0.94 µM
7 | CCCCCCCCCCCCCCCC(=O)NC(COP(=O)(O)O)Cc1ccc(OCc2cccc(OC)c2)cc1 (stereo not drawn) | 7.22 µM
8 | CCCCCCCC/C=C\CCCCCCCC(=O)N[C@@H](COP(=O)(O)O)Cc1ccc(OCc2ccccc2)cc1 | > 10 µM
9 | CCCCCCCC/C=C\CCCCCCCC(=O)N[C@H](COP(=O)(O)O)Cc1ccc(OCc2ccccc2)cc1 | > 10 µM
10 | C#CCOc1ccc(C[C@@H](COP(=O)(O)O)NC(=O)CCCCCCC/C=C\CCCCCCCC)cc1 | > 10 µM
11 | CCCCCCCC/C=C\CCCCCCCC(=O)N[C@@H](COP(=O)(O)O)Cc1ccc(OCC2CCCCC2)cc1 | 4.03 µM
12 | CCCCCCCC/C=C\CCCCCCCC(=O)N[C@@H](COP(=O)(O)O)Cc1ccc(OCCC(C)C)cc1 | 0.351 µM
13 | CCCCCCCC/C=C\CCCCCCCC(=O)N[C@H](COP(=O)(O)O)Cc1ccc(OCC)cc1 | 6.93 µM
14 | C=CCOc1ccc(C[C@@H](COP(=O)(O)O)NC(=O)CCCCCCC/C=C\CCCCCCCC)cc1 | > 10 µM
15 | CCCCCCCCCCCCCC(=O)NC(COP(=O)(O)O)Cc1ccc(OCc2ccccc2)cc1 (stereo not drawn) | > 10 µM
16 | CCCCCCCC/C=C\CCCCCCCC(=O)N[C@@H](COP(=O)(O)O)Cc1ccc(OCc2ccccn2)cc1 | 0.175 µM
17 | CCCCCCCCCCCCCCCC(=O)NC(COP(=O)(O)O)Cc1ccc(OCc2ccccc2)cc1 (stereo not drawn) | 6.84 µM
18 | CCCCCCCC/C=C\CCCCCCCC(=O)N[C@H](COP(=O)(O)O)Cc1ccc(OCc2cccc(OC)c2)cc1 | 0.642 µM
19 | CCCCCCCC/C=C\CCCCCCCC(=O)N[C@@H](COP(=O)(O)O)Cc1ccc(OCc2cccc(OC)c2)cc1 | 0.0356 µM
20 | CCCCC/C=C\C/C=C\CCCCCCCC(=O)NC(COP(=O)(O)O)Cc1ccc(OCc2ccccc2)cc1 (stereo not drawn) | > 10 µM
21 | CCCCCCCC(=O)NC(COP(=O)(O)O)Cc1ccc(OCc2ccccc2)cc1 (stereo not drawn) | > 10 µM
22 | CCCCCCCC/C=C\CCCCCCCC(=O)N[C@H](COP(=O)(O)O)Cc1ccc(Oc2cc3ccccc3[nH]2)cc1 | 9.26 µM
23 | CCCCCCCC/C=C\CCCCCCCC(=O)N[C@H](COP(=O)(O)O)Cc1ccc(OCCC(C)C)cc1 | 5.92 µM
24 | CCCCCCCCCCCCCCCCCC(=O)N[C@@H](COP(=O)(O)O)Cc1ccc(OC2O[C@H](CO)[C@@H](O)[C@H](O)[C@H]2O)cc1 (stereo partly drawn) | > 10 µM
25 | CCCCCCCC/C=C\CCCCCCCC(=O)N[C@@H](COP(=O)(O)O)Cc1ccc(OC)cc1 | > 10 µM
26 | C#CCCCCOc1ccc(C[C@H](COP(=O)(O)O)NC(=O)CCCCCCC/C=C\CCCCCCCC)cc1 | 3.28 µM
27 | CCCCCCCC/C=C\CCCCCCCC(=O)N[C@@H](COP(=O)(O)O)Cc1ccc(OCC)cc1 | 6.41 µM
28 | CCCCCCCC/C=C\CCCCCCCC(=O)N[C@H](COP(=O)(O)O)Cc1ccc(OC(=O)c2ccc(N)cc2)cc1 | > 10 µM

These compounds were tested against Lysophosphatidic acid receptor 1 (Homo sapiens, UniProt Q92633) (assay: In vitro ability to antagonize LPA-evoked [35S]GTP-gamma-S binding to lysophosphatidic acid receptor 1 in HEK293T cell lines).
Format: functional, cell-based, HEK-293T

Lysophosphatidic acid receptor 1, sequence (Q92633 whole entry): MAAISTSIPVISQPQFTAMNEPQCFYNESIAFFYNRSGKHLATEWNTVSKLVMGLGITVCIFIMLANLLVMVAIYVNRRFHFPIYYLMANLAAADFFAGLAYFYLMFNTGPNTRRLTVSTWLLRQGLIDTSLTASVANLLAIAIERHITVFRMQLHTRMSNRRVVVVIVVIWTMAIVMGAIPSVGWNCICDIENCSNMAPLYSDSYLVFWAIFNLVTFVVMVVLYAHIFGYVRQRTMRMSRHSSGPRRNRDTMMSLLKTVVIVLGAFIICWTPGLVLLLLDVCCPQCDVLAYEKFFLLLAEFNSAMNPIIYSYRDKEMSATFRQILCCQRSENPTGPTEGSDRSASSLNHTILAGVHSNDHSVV

Row | SMILES | IC50 | Ki
29 | CCCCCCCC/C=C\CCCCCCCC(=O)NC(COP(=O)(O)O)Cc1ccc(OCc2ccccc2)cc1 (stereo not drawn) | 5.21 µM | 0.137 µM
30 | CCCCCCCC/C=C\CCCCCCCC(=O)N[C@@H](COP(=O)(O)O)Cc1ccc(OC(=O)c2cc(OC)c(OC)c(OC)c2)cc1 | > 10 µM | –
31 | CCCCCCCC/C=C\CCCCCCCC(=O)N[C@@H](COP(=O)(O)O)Cc1ccc(OC2Cc3ccccc3C2)cc1 | 2.93 µM | 0.134 µM
32 | CCCCCCCC/C=C\CCCCCCCC(=O)N[C@H](COP(=O)(O)O)Cc1ccc(OC(=O)c2ccc(CCCCC)cc2)cc1 | > 10 µM | –
33 | CCCCCCCC/C=C\CCCCCCCC(=O)N[C@@H](COP(=O)(O)O)Cc1ccc(Oc2cc3ccccc3[nH]2)cc1 | 7 µM | 0.073 µM
34 | CCCCCCCC/C=C\CCCCCCCC(=O)N[C@H](COP(=O)(O)O)Cc1ccc(OCc2ccccn2)cc1 | 0.604 µM | 0.156 µM
35 | CCCCCCCCCCCCCCCC(=O)NC(COP(=O)(O)O)Cc1ccc(OCc2cccc(OC)c2)cc1 (stereo not drawn) | > 10 µM | –
36 | CCCCCCCC/C=C\CCCCCCCC(=O)N[C@@H](COP(=O)(O)O)Cc1ccc(OCc2ccccc2)cc1 | 2.49 µM | –
37 | CCCCCCCC/C=C\CCCCCCCC(=O)N[C@H](COP(=O)(O)O)Cc1ccc(OCc2ccccc2)cc1 | > 10 µM | –
38 | C#CCOc1ccc(C[C@@H](COP(=O)(O)O)NC(=O)CCCCCCC/C=C\CCCCCCCC)cc1 | > 10 µM | –
39 | CCCCCCCC/C=C\CCCCCCCC(=O)N[C@@H](COP(=O)(O)O)Cc1ccc(OCC2CCCCC2)cc1 | > 10 µM | –
40 | CCCCCCCC/C=C\CCCCCCCC(=O)N[C@@H](COP(=O)(O)O)Cc1ccc(OCCC(C)C)cc1 | > 10 µM | –
41 | CCCCCCCC/C=C\CCCCCCCC(=O)N[C@H](COP(=O)(O)O)Cc1ccc(OCC)cc1 | > 10 µM | –
42 | C=CCOc1ccc(C[C@@H](COP(=O)(O)O)NC(=O)CCCCCCC/C=C\CCCCCCCC)cc1 | > 10 µM | –
43 | CCCCCCCCCCCCCC(=O)NC(COP(=O)(O)O)Cc1ccc(OCc2ccccc2)cc1 (stereo not drawn) | 9.03 µM | –
44 | CCCCCCCC/C=C\CCCCCCCC(=O)N[C@@H](COP(=O)(O)O)Cc1ccc(OCc2ccccn2)cc1 | 0.109 µM | 0.018 µM
45 | CCCCCCCCCCCCCCCC(=O)NC(COP(=O)(O)O)Cc1ccc(OCc2ccccc2)cc1 (stereo not drawn) | > 10 µM | –
46 | CCCCCCCC/C=C\CCCCCCCC(=O)N[C@H](COP(=O)(O)O)Cc1ccc(OCc2cccc(OC)c2)cc1 | 5.66 µM | 0.642 µM
47 | CCCCCCCC/C=C\CCCCCCCC(=O)N[C@@H](COP(=O)(O)O)Cc1ccc(OCc2cccc(OC)c2)cc1 | 1.07 µM | 0.034 µM
48 | CCCCC/C=C\C/C=C\CCCCCCCC(=O)NC(COP(=O)(O)O)Cc1ccc(OCc2ccccc2)cc1 (stereo not drawn) | 4.25 µM | –
49 | CCCCCCCC(=O)NC(COP(=O)(O)O)Cc1ccc(OCc2ccccc2)cc1 (stereo not drawn) | 7.97 µM | –
50 | CCCCCCCC/C=C\CCCCCCCC(=O)N[C@H](COP(=O)(O)O)Cc1ccc(Oc2cc3ccccc3[nH]2)cc1 | > 10 µM | –
51 | CCCCCCCC/C=C\CCCCCCCC(=O)N[C@H](COP(=O)(O)O)Cc1ccc(OCCC(C)C)cc1 | > 10 µM | –
52 | CCCCCCCCCCCCCCCCCC(=O)N[C@@H](COP(=O)(O)O)Cc1ccc(OC2O[C@H](CO)[C@@H](O)[C@H](O)[C@H]2O)cc1 (stereo partly drawn) | > 10 µM | –
53 | CCCCCCCC/C=C\CCCCCCCC(=O)N[C@@H](COP(=O)(O)O)Cc1ccc(OC)cc1 | > 10 µM | –
54 | C#CCCCCOc1ccc(C[C@H](COP(=O)(O)O)NC(=O)CCCCCCC/C=C\CCCCCCCC)cc1 | > 10 µM | –
55 | CCCCCCCC/C=C\CCCCCCCC(=O)N[C@@H](COP(=O)(O)O)Cc1ccc(OCC)cc1 | > 10 µM | –
56 | CCCCCCCC/C=C\CCCCCCCC(=O)N[C@H](COP(=O)(O)O)Cc1ccc(OC(=O)c2ccc(N)cc2)cc1 | > 10 µM | –
